Experimental findings from EPA's ToxRefDB 2 are described below.

Where only a bound is given, the exact number is not on record here.

Data set [1] deals with rat. As to conditions: Subchronic oral toxicity in rodents, fischer, Gavage/Intubation, dose end: 13 week, group: systemic.
Data set [2] relates to mouse. As to conditions: Subchronic oral toxicity in rodents, b6c3f1, Gavage/Intubation, dose end: 13 week, group: systemic, systemic / in life observation / body weight / body weight.
In data set [3] the test system is rat. As to conditions: Carcinogenicity; fischer; Oral; Gavage/Intubation; dose end: 103 week; group: systemic; systemic / in life observation / body weight / body weight.
Data set [4] concerns mouse. As to conditions: Carcinogenicity, b6c3f1, Oral, Gavage/Intubation, dose end: 103 week, group: systemic.
[5] abbreviates: systemic / in life observation / body weight / body weight + systemic / in life observation / mortality / mortality + systemic / pathology ….
Where [6] appears, read: systemic / pathology microscopic / liver / hypertrophy + systemic / pathology microscopic / liver / necrosis + systemic / pathology ….

Turning to `CC(Cl)CCl` (stereo not given) [1,2-Dichloropropane], the LEL came out at 500 mg/kg/day with rat [1] (systemic / in life observation / body weight / body weight + systemic / in life observation / mortality / mortality), 30 mg/kg/day in the data set on mouse [2], 62 mg/kg/day in the data set with rat [3] and 125 mg/kg/day with mouse [4] (setting [6]). For the same compound, the LOAEL (usually the lowest tested level that showed an adverse finding) was above 1000 mg/kg/day in the data set on rat [1] (setting [5]), 500 mg/kg/day with mouse [2], 125 mg/kg/day in the data set on rat [3] and 250 mg/kg/day with mouse [4] (systemic / pathology microscopic / liver / hypertrophy + systemic / pathology microscopic / liver / necrosis). For the same compound, the NEL was 250 mg/kg/day in the data set with rat [1] (setting [5]), below 30 mg/kg/day in the data set on mouse [2], below 62 mg/kg/day in the data set with rat [3] and below 125 mg/kg/day with mouse [4] (setting [6]). Further, the no-observed-adverse-effect level (NOAEL) (as a rule, the highest tested level that showed no adverse finding) in the data set with rat [1] (setting [5]) is at least 1000 mg/kg/day; in the data set with mouse [2], 250 mg/kg/day; in the data set on mouse [4] (setting [6]), 125 mg/kg/day.
